Laboratory results as given in paper PMC5218480 (PLoS ONE, 2017).

System: MV-4-11 cells
Assay: Gene expression microarray analysis (Affymetrix PrimeView) and GSEA
Format: cell-based, human
Design: RFU PODN (11730768_x_at) / Fold change /veh PODN (11730768_x_at) / RFU LINC00158 (11744669_a_at) / Fold change /veh LINC00158 (11744669_a_at) / RFU DUSP10 (11751237_a_at) / Fold change /veh DUSP10 (11751237_a_at) / RFU ID3 (11757404_x_at) / Fold change /veh ID3 (11757404_x_at) / RFU PLEKHG5 (11737974_s_at) / Fold change /veh PLEKHG5 (11737974_s_at) / RFU LRRC4B (11730491_at) / Fold change /veh LRRC4B (11730491_at) / RFU GIMAP4 (11747438_a_at) / Fold change /veh GIMAP4 (11747438_a_at) / RFU KRT8 (11758183_x_at) / Fold change /veh KRT8 (11758183_x_at) / RFU CNN1 (11734310_a_at) / Fold change /veh CNN1 (11734310_a_at) / RFU VPS37D (11726825_at) / Fold change /veh VPS37D (11726825_at) / RFU C10orf10 (11716522_x_at) / Fold change /veh C10orf10 (11716522_x_at) / RFU KIR2DL2 /// KIR2DL4 /// KIR2DL5A /// KIR2DL5B /// KIR2DS1 /// KIR2DS2 /// KIR2DS3 /// KIR2DS4 /// KIR3DL3 /// KIR3DL3 /// KIR3DS1 (11738374_at) / Fold change /veh KIR2DL2 /// KIR2DL4 /// KIR2DL5A /// KIR2DL5B /// KIR2DS1 /// KIR2DS2 /// KIR2DS3 /// KIR2DS4 /// KIR3DL3 /// KIR3DL3 /// KIR3DS1 (11738374_at) / RFU C1QL1 (11718748_at) / Fold change /veh C1QL1 (11718748_at) / RFU TMPRSS4 (11747572_a_at) / Fold change /veh TMPRSS4 (11747572_a_at) / RFU HAMP (11756126_x_at) / Fold change /veh HAMP (11756126_x_at) / RFU RNFT2 (11725882_a_at) / Fold change /veh RNFT2 (11725882_a_at) / RFU NR4A2 (11747474_a_at) / Fold change /veh NR4A2 (11747474_a_at) / RFU ABCC12 (11746883_a_at) / Fold change /veh ABCC12 (11746883_a_at) / RFU TMEM136 (11760407_x_at) / Fold change /veh TMEM136 (11760407_x_at) / RFU CLDN22 /// WWC2 (11732394_at) / Fold change /veh CLDN22 /// WWC2 (11732394_at) / RFU HLA-DPB1 (11760878_x_at) / Fold change /veh HLA-DPB1 (11760878_x_at) / RFU SPINT1 (11716480_a_at) / Fold change /veh SPINT1 (11716480_a_at) / RFU GAP43 (11754022_s_at) / Fold change /veh GAP43 (11754022_s_at) / RFU A4GNT (11735810_at) / Fold change /veh A4GNT (11735810_at) / RFU PRB3 (11715151_x_at) / Fold change /veh PRB3 (11715151_x_at) / RFU TUBB4B (11761932_at) / Fold change /veh TUBB4B (11761932_at) / RFU CAPN14 (11732068_a_at) / Fold change /veh CAPN14 (11732068_a_at) / RFU TMCC2 (11721928_a_at) / Fold change /veh TMCC2 (11721928_a_at) / RFU IRGQ (11745062_a_at) / Fold change /veh IRGQ (11745062_a_at) / RFU FAM174B (11720279_a_at) / Fold change /veh FAM174B (11720279_a_at) / RFU TMPRSS4 (11748680_a_at) / Fold change /veh TMPRSS4 (11748680_a_at) / RFU FAM212B (11763350_a_at) / Fold change /veh FAM212B (11763350_a_at) / RFU PLEKHG5 (11743358_a_at) / Fold change /veh PLEKHG5 (11743358_a_at) / RFU ZSCAN30 (11745921_a_at) / Fold change /veh ZSCAN30 (11745921_a_at) / RFU CMKLR1 (11741424_a_at) / Fold change /veh CMKLR1 (11741424_a_at) / RFU LOC101060620 /// MAPK8IP1 (11723275_at) / Fold change /veh LOC101060620 /// MAPK8IP1 (11723275_at) / RFU SPTSSB (11747773_x_at) / Fold change /veh SPTSSB (11747773_x_at) / RFU PRSS12 (11739890_at) / Fold change /veh PRSS12 (11739890_at) / RFU BIN1 (11741810_x_at) / Fold change /veh BIN1 (11741810_x_at) / RFU WNT11 (11732464_a_at) / Fold change /veh WNT11 (11732464_a_at) / RFU C10orf10 (11716521_a_at) / Fold change /veh C10orf10 (11716521_a_at) / RFU C5orf56 (11738089_at) / Fold change /veh C5orf56 (11738089_at) / RFU CYB561 (11721691_x_at) / Fold change /veh CYB561 (11721691_x_at) / RFU ANKRD19P (11752326_a_at) / Fold change /veh ANKRD19P (11752326_a_at) / RFU OR2T12 /// OR2T33 /// OR2T8 (11738714_s_at) / Fold change /veh OR2T12 /// OR2T33 /// OR2T8 (11738714_s_at) / RFU VCAN (11748164_a_at) / Fold change /veh VCAN (11748164_a_at) / RFU JSRP1 (11732532_at) / Fold change /veh JSRP1 (11732532_at) / RFU KRTAP10-11 (11738290_x_at) / Fold change /veh KRTAP10-11 (11738290_x_at) / RFU MYO3A (11730013_a_at) / Fold change /veh MYO3A (11730013_a_at) / RFU EBF3 (11725865_a_at) / Fold change /veh EBF3 (11725865_a_at) / RFU CAMK2N1 (11719241_x_at) / Fold change /veh CAMK2N1 (11719241_x_at) / RFU C5orf56 (11738088_a_at) / Fold change /veh C5orf56 (11738088_a_at) / RFU OLFML3 (11715873_a_at) / Fold change /veh OLFML3 (11715873_a_at) / RFU LOC100653217 /// NTM (11731650_a_at) / Fold change /veh LOC100653217 /// NTM (11731650_a_at) / RFU MAPK11 (11762145_a_at) / Fold change /veh MAPK11 (11762145_a_at) / RFU FIZ1 (11724087_x_at) / Fold change /veh FIZ1 (11724087_x_at) / RFU OASL (11726364_x_at) / Fold change /veh OASL (11726364_x_at) / RFU SOX15 (11748057_x_at) / Fold change /veh SOX15 (11748057_x_at) / RFU CD79A (11719716_a_at) / Fold change /veh CD79A (11719716_a_at) / RFU HIST1H1D (11736915_at) / Fold change /veh HIST1H1D (11736915_at) / RFU CASKIN2 (11723855_a_at) / Fold change /veh CASKIN2 (11723855_a_at) / RFU LOC730098 (11760151_x_at) / Fold change /veh LOC730098 (11760151_x_at) / RFU OR4N2 (11742367_at) / Fold change /veh OR4N2 (11742367_at) / RFU PRRT2 (11749266_a_at) / Fold change /veh PRRT2 (11749266_a_at) / RFU SNX32 (11753110_a_at) / Fold change /veh SNX32 (11753110_a_at) / RFU CDHR5 (11726645_a_at) / Fold change /veh CDHR5 (11726645_a_at) / RFU RCAN1 (11760418_a_at) / Fold change /veh RCAN1 (11760418_a_at) / RFU FAM167A (11723789_a_at) / Fold change /veh FAM167A (11723789_a_at) / RFU FAM26E (11764081_at) / Fold change /veh FAM26E (11764081_at) / RFU ISYNA1 (11749810_s_at) / Fold change /veh ISYNA1 (11749810_s_at) / RFU ACY1 (11761880_at) / Fold change /veh ACY1 (11761880_at) / RFU 11764098_at / Fold change /veh 11764098_at / RFU SAMD14 (11745864_x_at) / Fold change /veh SAMD14 (11745864_x_at) / RFU NPB (11741838_a_at) / Fold change /veh NPB (11741838_a_at) / RFU TMPRSS6 (11731388_a_at) / Fold change /veh TMPRSS6 (11731388_a_at) / RFU KRTAP10-2 (11738614_at) / Fold change /veh KRTAP10-2 (11738614_at) / RFU ARHGAP8 /// PRR5-ARHGAP8 (11727945_x_at) / Fold change /veh ARHGAP8 /// PRR5-ARHGAP8 (11727945_x_at) / RFU KRTAP5-7 /// NADSYN1 (11734609_at) / Fold change /veh KRTAP5-7 /// NADSYN1 (11734609_at) / RFU RASL12 (11751679_a_at) / Fold change /veh RASL12 (11751679_a_at) / RFU CDKN2B (11736163_a_at) / Fold change /veh CDKN2B (11736163_a_at) / RFU PRF1 (11729649_at) / Fold change /veh PRF1 (11729649_at) / RFU, ZNF638 /// ZNF638-IT1 / Fold change vs veh, ZNF638 /// ZNF638-IT1 / RFU, PANK3 / Fold change vs veh, PANK3 / RFU, SH3YL1 / Fold change vs veh, SH3YL1 / RFU, ZEB2 / Fold change vs veh, ZEB2 / RFU, NRIP1 / Fold change vs veh, NRIP1 / RFU, PTTG1IP / Fold change vs veh, PTTG1IP / RFU, CAPN2 / Fold change vs veh, CAPN2 / RFU, MED14 / Fold change vs veh, MED14 / RFU, SNORA58 / Fold change vs veh, SNORA58 / RFU, C1orf63 / Fold change vs veh, C1orf63 / RFU, LRRFIP1 / Fold change vs veh, LRRFIP1 / RFU, NDUFAF7 / Fold change vs veh, NDUFAF7 / RFU, SLC12A2 / Fold change vs veh, SLC12A2 / RFU, IBTK / Fold change vs veh, IBTK / RFU, ESF1 / Fold change vs veh, ESF1 / Fold change vs veh, TMEM50B / RFU, TAOK1 / Fold change vs veh, TAOK1 / RFU, ACBD3 / Fold change vs veh, ACBD3 / RFU, TMA16 / Fold change vs veh, TMA16 / RFU, RWDD3 / Fold change vs veh, RWDD3 / RFU, BCAT1 / Fold change vs veh, BCAT1 / RFU, EDEM3 / Fold change vs veh, EDEM3 / RFU, TMEM33 / Fold change vs veh, TMEM33 / RFU, WDR75 / Fold change vs veh, WDR75 / RFU, AHCTF1 / Fold change vs veh, AHCTF1 / RFU, TFRC / Fold change vs veh, TFRC / RFU, ZDHHC17 / Fold change vs veh, ZDHHC17 / RFU, NOM1 / Fold change vs veh, NOM1 / RFU, ARL8B / Fold change vs veh, ARL8B / RFU, ZBTB11 / Fold change vs veh, ZBTB11 / RFU, TAMM41 / Fold change vs veh, TAMM41 / RFU, KIAA1704 /// LOC100996395 / Fold change vs veh, KIAA1704 /// LOC100996395 / RFU, ING1 / Fold change vs veh, ING1 / RFU, TRMT61B / Fold change vs veh, TRMT61B / RFU, FUBP3 / Fold change vs veh, FUBP3 / RFU, TP53 / Fold change vs veh, TP53 / RFU, TNKS2 / Fold change vs veh, TNKS2 / RFU, ZFP14 / Fold change vs veh, ZFP14 / RFU, ACTR2 / Fold change vs veh, ACTR2 / RFU, PPP3R1 / Fold change vs veh, PPP3R1 / RFU, PIK3R1 / Fold change vs veh, PIK3R1 / RFU, HNRNPA1 / Fold change vs veh, HNRNPA1 / RFU, RNF170 / Fold change vs veh, RNF170 / RFU, ZNF28 / Fold change vs veh, ZNF28 / RFU, RNGTT / Fold change vs veh, RNGTT / RFU, OGT / Fold change vs veh, OGT / RFU, BRD1 / Fold change vs veh, BRD1 / RFU, MARS / Fold change vs veh, MARS / RFU, ZNF655 / Fold change vs veh, ZNF655 / RFU, FAHD1 / Fold change vs veh, FAHD1 / RFU, BDP1 / Fold change vs veh, BDP1 / RFU, LRRCC1 / Fold change vs veh, LRRCC1 / RFU, ARID1A / Fold change vs veh, ARID1A / RFU, ZNF146 / Fold change vs veh, ZNF146 / RFU, ZNF330 / Fold change vs veh, ZNF330 / RFU, GPN3 / Fold change vs veh, GPN3 / RFU, C9orf123 / Fold change vs veh, C9orf123 / RFU, N4BP2L2 / Fold change vs veh, N4BP2L2 / RFU, ARFIP1 / Fold change vs veh, ARFIP1 / RFU, FAM179B / Fold change vs veh, FAM179B / RFU, BCL10 / Fold change vs veh, BCL10 / RFU, UHRF1BP1L / Fold change vs veh, UHRF1BP1L / RFU, BET1 / Fold change vs veh, BET1 / RFU, CNOT2 / Fold change vs veh, CNOT2 / RFU, ZNF268 / Fold change vs veh, ZNF268 / Fold change vs veh, ZNF507 / RFU, DGCR2 / Fold change vs veh, DGCR2 / RFU, WDSUB1 / Fold change vs veh, WDSUB1 / Fold change vs veh, HSP90B1 /// MIR3652 / RFU, ADSS / Fold change vs veh, ADSS / RFU, GK / Fold change vs veh, GK / RFU, ZNF148 / Fold change vs veh, ZNF148 / RFU, TAF9 / Fold change vs veh, TAF9 / RFU, SLC1A5 / Fold change vs veh, SLC1A5 / RFU, SLMO2 / Fold change vs veh, SLMO2 / RFU, ABCC4 / Fold change vs veh, ABCC4 / RFU, LOC101060439 /// RAP1B / Fold change vs veh, LOC101060439 /// RAP1B / RFU, RFX7 / Fold change vs veh, RFX7 / RFU, GTPBP10 / Fold change vs veh, GTPBP10 / RFU, CNEP1R1 / Fold change vs veh, CNEP1R1 / RFU, BIVM-ERCC5 /// ERCC5 / Fold change vs veh, BIVM-ERCC5 /// ERCC5 / RFU, ILF3 / Fold change vs veh, ILF3 / RFU 11762660_at / Fold change /veh 11762660_at / RFU VCAN (11757783_s_at) / Fold change /veh VCAN (11757783_s_at) / RFU DDX43 (11728927_at) / Fold change /veh DDX43 (11728927_at) / RFU KRT8 (11758188_x_at) / Fold change /veh KRT8 (11758188_x_at) / RFU NKD1 (11759106_at) / Fold change /veh NKD1 (11759106_at) / RFU SRD5A1 (11742802_a_at) / Fold change /veh SRD5A1 (11742802_a_at) / RFU TPSAB1 /// TPSB2 (11721975_s_at) / Fold change /veh TPSAB1 /// TPSB2 (11721975_s_at) / RFU GSTM3 (11746129_a_at) / Fold change /veh GSTM3 (11746129_a_at) / RFU IL23R (11737362_x_at) / Fold change /veh IL23R (11737362_x_at) / RFU TMEM51 (11727254_a_at) / Fold change /veh TMEM51 (11727254_a_at) / RFU PIWIL2 (11732686_x_at) / Fold change /veh PIWIL2 (11732686_x_at) / RFU ORM1 (11744905_x_at) / Fold change /veh ORM1 (11744905_x_at) / RFU CCDC152 (11743942_at) / Fold change /veh CCDC152 (11743942_at) / RFU ECM1 (11717891_a_at) / Fold change /veh ECM1 (11717891_a_at) / RFU IL23R (11748794_a_at) / Fold change /veh IL23R (11748794_a_at) / RFU TNFAIP8L3 (11732012_x_at) / Fold change /veh TNFAIP8L3 (11732012_x_at) / RFU MBOAT4 (11741988_at) / Fold change /veh MBOAT4 (11741988_at) / RFU 11764193_at / Fold change /veh 11764193_at / RFU TMEM53 (11763286_at) / Fold change /veh TMEM53 (11763286_at) / RFU MAGEB2 (11727129_at) / Fold change /veh MAGEB2 (11727129_at) / RFU TMEM200A (11744735_a_at) / Fold change /veh TMEM200A (11744735_a_at) / RFU CCDC152 (11751479_a_at) / Fold change /veh CCDC152 (11751479_a_at) / RFU FAM211A (11726209_a_at) / Fold change /veh FAM211A (11726209_a_at) / RFU RGS16 (11746705_a_at) / Fold change /veh RGS16 (11746705_a_at) / RFU VCAN (11755009_s_at) / Fold change /veh VCAN (11755009_s_at) / RFU RHOB (11743442_s_at) / Fold change /veh RHOB (11743442_s_at) / RFU RGS16 (11720943_a_at) / Fold change /veh RGS16 (11720943_a_at) / RFU RGS16 (11720944_at) / Fold change /veh RGS16 (11720944_at) / RFU, VPS4B / Fold change vs veh, VPS4B / RFU, CREB1 / Fold change vs veh, CREB1 / RFU, DNAJC13 / Fold change vs veh, DNAJC13 / RFU, GNAQ / Fold change vs veh, GNAQ / RFU, CDK5R1 / Fold change vs veh, CDK5R1 / RFU, ZRANB3 / Fold change vs veh, ZRANB3 / RFU, CUL4A / Fold change vs veh, CUL4A / RFU, CCNY / Fold change vs veh, CCNY / RFU, UFL1 / Fold change vs veh, UFL1 / RFU, COG3 / Fold change vs veh, COG3 / RFU, DIAPH2 / Fold change vs veh, DIAPH2 / RFU, SKA2 / Fold change vs veh, SKA2 / RFU, AFF3 / Fold change vs veh, AFF3 / RFU, LMF1 / Fold change vs veh, LMF1 / RFU, IPO11 / Fold change vs veh, IPO11 / RFU, DFFB / Fold change vs veh, DFFB / RFU, FOXP1 / Fold change vs veh, FOXP1 / RFU, CARD8 / Fold change vs veh, CARD8 / RFU, STRN3 / Fold change vs veh, STRN3 / RFU, ADK / Fold change vs veh, ADK / RFU, RASSF2 / Fold change vs veh, RASSF2 / RFU, WIPF1 / Fold change vs veh, WIPF1 / RFU, LARP1B / Fold change vs veh, LARP1B / RFU, RASA1 / Fold change vs veh, RASA1 / RFU, RB1 / Fold change vs veh, RB1 / RFU, PPFIA1 / Fold change vs veh, PPFIA1 / RFU, MAT2A / Fold change vs veh, MAT2A / RFU, CCT5 / Fold change vs veh, CCT5 / RFU, WDR92 / Fold change vs veh, WDR92 / RFU, CUX1 / Fold change vs veh, CUX1 / RFU, TTC7A / Fold change vs veh, TTC7A / RFU, TMEM135 / Fold change vs veh, TMEM135 / RFU, DEPTOR / Fold change vs veh, DEPTOR / RFU, CPM / Fold change vs veh, CPM / RFU, DNAJB6 / Fold change vs veh, DNAJB6 / RFU, CACNA2D3 / Fold change vs veh, CACNA2D3 / RFU, DTX4 / Fold change vs veh, DTX4 / RFU, TFCP2 / Fold change vs veh, TFCP2 / RFU, GMCL1 /// GMCL1P1 / Fold change vs veh, GMCL1 /// GMCL1P1 / RFU, AEBP2 / Fold change vs veh, AEBP2 / RFU, SNHG1 /// SNORD22 /// SNORD25 /// SNORD26 /// SNORD27 /// SNORD28 /// SNORD29 /// SNORD31 / Fold change vs veh, SNHG1 /// SNORD22 /// SNORD25 /// SNORD26 /// SNORD27 /// SNORD28 /// SNORD29 /// SNORD31 / Fold change (Aza/veh), C12orf56 (ProbeSet 11735607_a_at) / Fold change (ACY-1035/veh), C12orf56 (ProbeSet 11735607_a_at) / Fold change (Aza/veh), FGFR1OP (ProbeSet 11751329_s_at) / Fold change (ACY-1035/veh), FGFR1OP (ProbeSet 11751329_s_at) / Fold change (Aza/veh), VPS36 (ProbeSet 11739960_a_at) / Fold change (ACY-1035/veh), VPS36 (ProbeSet 11739960_a_at) / RFU SYPL1 (11715823_x_at) / Fold change /veh SYPL1 (11715823_x_at) / RFU IGFBP7 (11715501_s_at) / Fold change /veh IGFBP7 (11715501_s_at) / RFU REEP3 (11722064_at) / Fold change /veh REEP3 (11722064_at) / RFU IGLL1 (11728026_x_at) / Fold change /veh IGLL1 (11728026_x_at): dose or concentration left out as unconfirmed
Settings: ProbeSet 11725901_x_at; LIST B

Nc1ncn([C@@H]2O[C@H](CO)[C@@H](O)[C@H]2O)c(=O)n1 [azacitidine]
Fold change vs veh, RWDD3: 0.96
